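Test compounds were applied to cells in 96-well plates for 48 hours at 5 doses. The concentration for 50% growth inhibition is given as GI50.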 Active and inactive are the calls of the source. Rule as the data show it: active = GI50 up to about 1.1 µM and inactive = higher.
How the values were obtained:
Experiment in all cases: NCI-60 cell line screen, 48 h
SNB-19 = test system: SNB-19
MOLT-4 = test system: MOLT-4
MDA-N = test system: MDA-N
NCI/ADR-RES = test system: NCI/ADR-RES
HCT-15 = test system: HCT-15
SK-MEL-2 = test system: SK-MEL-2
OVCAR-8 = test system: OVCAR-8
UO-31 = test system: UO-31
K562 = test system: K562
DU-145 = test system: DU-145
HL-60 = test system: HL-60
EKVX = test system: EKVX
ACHN = test system: ACHN
786-0 = test system: 786-0
KM12 = test system: KM12
UACC-257 = test system: UACC-257
MDA-MB-435 = test system: MDA-MB-435
Hs-578T = test system: Hs-578T
SK-MEL-5 = test system: SK-MEL-5
CAKI-1 = test system: CAKI-1

| Compound | GI50 (SNB-19) | GI50 (MOLT-4) | GI50 (MDA-N) | GI50 (NCI/ADR-RES) | GI50 (HCT-15) [µM] | GI50 (SK-MEL-2) | GI50 (OVCAR-8) | GI50 (UO-31) | GI50 (K562) | GI50 (DU-145) | GI50 (HL-60) | GI50 (EKVX) | GI50 (ACHN) | GI50 (786-0) | GI50 (KM12) | GI50 (UACC-257) | GI50 (MDA-MB-435) | GI50 (Hs-578T) | GI50 (SK-MEL-5) | GI50 (CAKI-1) |
| --- | --- | --- | --- | --- | --- | --- | --- | --- | --- | --- | --- | --- | --- | --- | --- | --- | --- | --- | --- | --- |
| CC(C)[C@H]1NC(=O)[C@H]2N=C(O[C@@H]2C)[C@@H]2CCCN2C(=O)[C@H](Cc2ccccc2)NC(=O)[C@@H]2CSC(=N2)[C@@H](Cc2ccccc2)NC(=O)[C@@H]2CSC1=N2 | > 100 µM (inactive) | 75.7 µM (inactive) | > 100 µM (inactive) | 86.5 µM (inactive) | > 100 | 85.9 µM (inactive) | > 100 µM (inactive) | 59.8 µM (inactive) | 92.9 µM (inactive) | > 100 µM (inactive) | > 100 µM (inactive) | > 100 µM (inactive) | > 100 µM (inactive) | > 100 µM (inactive) | 88.1 µM (inactive) | > 100 µM (inactive) | 52.8 µM (inactive) | > 100 µM (inactive) | 95.9 µM (inactive) | > 100 µM (inactive) |
| CSC1=NC(=O)CCN1C1OCC(OC(C)=O)C(OC(C)=O)C1OC(C)=O (stereo not given) | 16.3 µM (inactive) | 4.66 µM (inactive) | > 10 µM (inactive) | 15.8 µM (inactive) | 18.5 | 13.6 µM (inactive) | 15.8 µM (inactive) | 19.3 µM (inactive) | 3.65 µM (inactive) | 19.9 µM (inactive) | 2.99 µM (inactive) | 20.1 µM (inactive) | 17 µM (inactive) | 16.3 µM (inactive) | 21.5 µM (inactive) | 18.4 µM (inactive) | 17.9 µM (inactive) | 12.6 µM (inactive) | 10.9 µM (inactive) | 24.7 µM (inactive) |
| COc1ccc2nc(-n3c(/C=C/c4ccccc4O)nc4ccccc4c3=O)sc2c1 | 35.5 µM (inactive) | 32.9 µM (inactive) | 17 µM (inactive) | 55.3 µM (inactive) | 60.1 | 88.3 µM (inactive) | > 100 µM (inactive) | 64.6 µM (inactive) | 20.4 µM (inactive) | > 100 µM (inactive) | 43.4 µM (inactive) | 8.51 µM (inactive) | > 100 µM (inactive) | 35.9 µM (inactive) | 64.4 µM (inactive) | > 100 µM (inactive) | 19.7 µM (inactive) | > 100 µM (inactive) | 19.7 µM (inactive) | 46 µM (inactive) |
| Cc1cc(=O)oc2c(C)c3oc(CBr)cc3cc12 | 29 µM (inactive) | 14.3 µM (inactive) | 19.2 µM (inactive) | 19.4 µM (inactive) | 18.2 | 24.5 µM (inactive) | 23.8 µM (inactive) | 15.9 µM (inactive) | 19.9 µM (inactive) | 33.6 µM (inactive) | 18.3 µM (inactive) | 26.4 µM (inactive) | 15.8 µM (inactive) | 16.3 µM (inactive) | 19.1 µM (inactive) | 22.8 µM (inactive) | 18.2 µM (inactive) | 35.6 µM (inactive) | 13.2 µM (inactive) | 17.5 µM (inactive) |
| CN1CCN(CC(=O)N2CCCn3c2nc2ccccc2c3=O)CC1 | > 100 µM (inactive) | > 100 µM (inactive) | > 100 µM (inactive) | > 100 µM (inactive) | > 100 | > 100 µM (inactive) | > 100 µM (inactive) | > 100 µM (inactive) | > 100 µM (inactive) | > 100 µM (inactive) | > 100 µM (inactive) | > 100 µM (inactive) | > 100 µM (inactive) | > 100 µM (inactive) | > 100 µM (inactive) | > 100 µM (inactive) | > 100 µM (inactive) | > 100 µM (inactive) | > 100 µM (inactive) | > 100 µM (inactive) |
| CCc1ccc2nccc(NCCCN(C)C)c2c1[N+](=O)[O-] | > 100 µM (inactive) | > 100 µM (inactive) | 64.7 µM (inactive) | > 100 µM (inactive) | > 10 | > 100 µM (inactive) | > 100 µM (inactive) | 86.3 µM (inactive) | 42.8 µM (inactive) | > 100 µM (inactive) | > 100 µM (inactive) | > 100 µM (inactive) | > 100 µM (inactive) | > 100 µM (inactive) | > 100 µM (inactive) | 32.3 µM (inactive) | 62.2 µM (inactive) | 30.9 µM (inactive) | 44.3 µM (inactive) | 46.6 µM (inactive) |
| CCOC(=O)C(NC(=O)c1ccco1)(Nc1nc2ccc(OCC)cc2s1)C(F)(F)F (stereo not given) | 51.4 µM (inactive) | 20.1 µM (inactive) | 21.6 µM (inactive) | 25.8 µM (inactive) | 22.9 | 32.7 µM (inactive) | 43.9 µM (inactive) | 4.22 µM (inactive) | 27.6 µM (inactive) | 55.3 µM (inactive) | > 100 µM (inactive) | 32.8 µM (inactive) | 26.8 µM (inactive) | 21.7 µM (inactive) | 21.8 µM (inactive) | 28.4 µM (inactive) | 24.4 µM (inactive) | 38.7 µM (inactive) | 19.4 µM (inactive) | 17.3 µM (inactive) |
| Clc1ccc(-c2ccc(-c3nnc(CCc4nnc(-c5ccc(-c6ccc(Cl)cc6)o5)o4)o3)o2)cc1 | > 100 µM (inactive) | 3.81 µM (inactive) | > 100 µM (inactive) | > 100 µM (inactive) | > 100 | 23.4 µM (inactive) | > 91 µM (inactive) | > 100 µM (inactive) | 7.93 µM (inactive) | > 100 µM (inactive) | 4.81 µM (inactive) | > 85.3 µM (inactive) | > 55.6 µM (inactive) | > 43.3 µM (inactive) | > 100 µM (inactive) | > 100 µM (inactive) | > 100 µM (inactive) | 14.8 µM (inactive) | > 100 µM (inactive) | > 100 µM (inactive) |
| COc1ccc(Cn2c3c(cc(OC(C)=O)c2=O)Cc2ccccc2-3)cc1 | 12.9 µM (inactive) | 2.88 µM (inactive) | 12.1 µM (inactive) | 1.81 µM (inactive) | 2.55 | 4.61 µM (inactive) | 7.64 µM (inactive) | 5.56 µM (inactive) | 11.6 µM (inactive) | 12.2 µM (inactive) | 5.64 µM (inactive) | 7.76 µM (inactive) | 7.91 µM (inactive) | 5.33 µM (inactive) | 11.4 µM (inactive) | 2.28 µM (inactive) | 11 µM (inactive) | 20 µM (inactive) | 12.2 µM (inactive) | 10.7 µM (inactive) |
| COC(=O)Cc1c(/C=C/C(C)(C)n2cnc(CCN3C(=O)CCC3=O)c2)[nH]c2ccccc12 | > 100 µM (inactive) | 57.3 µM (inactive) | > 100 µM (inactive) | > 100 µM (inactive) | > 100 | > 100 µM (inactive) | > 100 µM (inactive) | 74.8 µM (inactive) | > 100 µM (inactive) | > 100 µM (inactive) | > 100 µM (inactive) | 13.7 µM (inactive) | 95.5 µM (inactive) | > 100 µM (inactive) | > 100 µM (inactive) | > 100 µM (inactive) | > 100 µM (inactive) | 43.7 µM (inactive) | 66.8 µM (inactive) | > 100 µM (inactive) |
| CC(=O)c1ccc2c3c1O[C@H]1c4[nH]c5ccccc5c4C[C@@]4(O)[C@@H](C2)N(CC2CC2)CC[C@]314 | 0.573 µM (active) | 17.1 µM (inactive) | 17.7 µM (inactive) | 8.67 µM (inactive) | 8.67 | 16.6 µM (inactive) | 13.6 µM (inactive) | 15.3 µM (inactive) | 16.8 µM (inactive) | 20.6 µM (inactive) | 16.1 µM (inactive) | 20.2 µM (inactive) | 17.2 µM (inactive) | 15 µM (inactive) | 21.3 µM (inactive) | 16.8 µM (inactive) | 18.6 µM (inactive) | 0.933 µM (active) | 16 µM (inactive) | 20 µM (inactive) |
| Brc1ccccc1/C=N\C12CC3CC(CC(C3)C1)C2 | > 100 µM (inactive) | 4.75 µM (inactive) | 3.38 µM (inactive) | > 100 µM (inactive) | 1.99 | > 81.3 µM (inactive) | > 100 µM (inactive) | > 100 µM (inactive) | 1.02 µM (active) | > 100 µM (inactive) | 0.879 µM (active) | > 100 µM (inactive) | > 68.2 µM (inactive) | > 52.8 µM (inactive) | > 100 µM (inactive) | > 79.4 µM (inactive) | 8.47 µM (inactive) | > 64.6 µM (inactive) | 51.6 µM (inactive) | 24.8 µM (inactive) |
| COc1cc(/C=C/c2nc(NC(=S)Nc3ccccc3)nnc2C)cc(OC)c1OC | 32.5 µM (inactive) | 25 µM (inactive) | 48.2 µM (inactive) | 28.4 µM (inactive) | 11.2 | 14.5 µM (inactive) | 20.8 µM (inactive) | 4.36 µM (inactive) | 29.9 µM (inactive) | 34 µM (inactive) | 8.3 µM (inactive) | 22.4 µM (inactive) | 18.2 µM (inactive) | 28.3 µM (inactive) | 14.5 µM (inactive) | 30.3 µM (inactive) | 38.4 µM (inactive) | 17.6 µM (inactive) | 14.7 µM (inactive) | 29.1 µM (inactive) |
| Cc1ccc(S(=O)(=O)NNC(=O)Nc2ccc(Cl)cc2)cc1 | > 100 µM (inactive) | > 100 µM (inactive) | > 100 µM (inactive) | > 100 µM (inactive) | > 100 | > 100 µM (inactive) | > 100 µM (inactive) | > 100 µM (inactive) | 4.26 µM (inactive) | > 100 µM (inactive) | > 100 µM (inactive) | > 100 µM (inactive) | 6.22 µM (inactive) | > 100 µM (inactive) | > 100 µM (inactive) | > 100 µM (inactive) | > 100 µM (inactive) | > 100 µM (inactive) | 53 µM (inactive) | > 100 µM (inactive) |
